Source: patent publication US20200030388A1, “COMPOSITIONS FOR MODIFYING GUT MICROBIOTA” (priority 2017, published 2020)
Several values for one entry are separate records, joined by “and”; a condition that tells them apart may be missing. Equal values may be shown once. Marks after values point to notes of the source that are not given here.

Tests used:
[1] = test system: HFD-Induced Obese Mice (C57BL/6); experiment: GAR, FOR, LMIX, HMIX in HFD-induced obese mice, 12 weeks (Example 4)
Description: (§1) Four-week-old, male C57BL/6 mice were purchased from the BioLASCO Experimental Animal Center (Taiwan Co., Ltd., Taipei, Taiwan) and housed in a controlled atmosphere (25±1° C. at 50% relative humidity) with a 12 h light/12 h dark cycle. After 1 week of acclimation, animals were randomly distributed into 6 groups as follows: normal diet (ND, 15% energy from fat), high-fat diet (HFD, 50% energy from lard-based fat), and HFD supplemented with 0.01% garcinol (GAR group), 0.025% Forskolin (FOR group), 0.005% GAR+0.025% FOR (LMIX group), and 0.01% Gar+0.025% For (HMIX group) for 12 weeks. […] Animals had free access to food and water. Food consumption was monitored daily and the body weight was recorded weekly. At the end of the experiments, all animals were sacrificed by CO2 asphyxiation. Blood samples were collected from the heart for biochemical analysis. The liver, spleen, kidney, fat pads (perigonadal, retroperitoneal, and mesenteric fat), and fresh fecal pellets were immediately removed and stored at −80° C. until further analysis.
(§2) Liver and the perigonadal adipose tissue were dissected and fixed in 10% buffered formalin for at least 24 h, dehydrated with a sequence of ethanol solutions, and processed for embedding in paraffin. Sections of 4 μm in thickness were cut, deparaffinized, rehydrated, stained with hematoxylin and eosin (H&E), and subjected to photo microscopic observation. Adipocyte size was measured at 100× magnification and determined by Image J software (U. S. National Institutes of Health, Bethesda, Md., USA).

[2] = test system: Gut Microbiota in HFD-Fed Mice; experiment: Gut microbiota classification by next generation sequencing (Example 4); type: in vivo, mouse
Description: Total DNA was extracted from fresh fecal samples by using the innuPREP Stool DNA kit (Analytik Jena AG, Jena, Germany) according to the manufacturer's instructions. According to the concentration, DNA was diluted to 1 ng μ L^−1 using sterile water. 6SrRNA/18SrRNA/ITS genes of distinct region (16SV4/16SV3/16SV3-V4/16SV4-V5, 18S V4/18S V9, ITS1/ITS2, Arc V4) were amplified using a specific primer (e.g. 16SV4: 515F-806R, 18S V4: 528F-706R, and 18S V9: 1380F-1510R) with a barcode. All PCR reactions were carried out using a Phusion® High-Fidelity PCR master mix (New England Biolabs, Ipswich, Mass., USA). The PCR products were mixed in ratios of equal density. Then, the mixed PCR products were purified using a Qiagen gel extraction kit (Qiagen, Hilden, Germany). Sequencing libraries were generated using the TruSeq® DNA PCR-free sample preparation kit (Illumina, San Diego, Calif., USA) following the manufacturer's recommendations, and index codes were added. The library quality was assessed using the Qubit@ 2.0 Fluorometer (Thermo Scientific) and Agilent Bioanalyzer 2100 system. Lastly, the library was sequenced using an Illumina HiSeq 2500 platform, and 250 bp paired-end reads were generated. The classification was based on the Greengenes database (https://greengenes.lbl.gov/).

[3] = test system: HFD-Induced Obese Mice (C57BL/6); conditions: mouse, in vivo
Description: as §1, §2

[4] = 0.01% GAR, 0.025% FOR, LMIX, HMIX

Kidney [3]: 0.4 ± 0.02^a g
Spleen [3]: 0.06 ± 0.01^a g
SMILES: C=C[C@@]1(C)CC(=O)[C@]2(O)[C@@]3(C)[C@@H](O)CCC(C)(C)[C@@H]3[C@H](O)[C@H](OC(C)=O)[C@@]2(C)O1 [FOR, Forskolin, reference compound]
Final weight [1, 4]: 30.5 g and 30.5 ± 2.6^c g
Weight gain [1, 4]: 9.1 ± 1.8^c g
Liver ([1]; organ weight): 1.5 ± 0.2^bc g
abundance of Firmicutes ([2]; 12 weeks (HFD group 43.0%)): 33.5%
abundance of Bacteroidetes ([2]; 12 weeks (HFD group 50.2%)): 62.2%
OTUs difference between ND and HFD groups (Venn diagram) ([2]; 12 weeks, FIG. 23A): 34 OTUs
